“Also recorded” adds a separate entry of the source.
Tested on: wild type mice
Experiment: EEG/EMG sleep recording, WT mice
Type: in vivo
Conditions: LY379268 5 mg/kg i.p., 3 h recordings, 5 mg/kg
From the text: For EEG recording studies, 8- to 12-week-old male mice with C57Bl/6J background, Ptchd1Y/− (knockout) and Ptchd1Y/+ (wild type) were deeply anesthetized with a 1% to 1.5% isoflurane. A screw electroencephalography (EEG) electrode (catalog no. 8403; Pinnacle Technology, Inc.) was implanted into the skull above the primary somatosensory cortex, S1 (AP: −1.8 and ML: +3.0 mm) using a stereotaxic device (David Kopf Instruments). A reference electrode was screwed in the occipital region of the skull and stainless steel electromyography (EMG) electrodes were placed in the nuchal muscle. All the electrodes were connected to a head-mount (catalog no. 8201-SS; Pinnacle Technology) and secured by using dental cement. The mice were allowed to recover for at least 2 weeks. Spontaneous EEG/EMG signals were recorded for 12 hours with a differential amplifier (8200-K1-SL amplifier; Pinnacle Technology). […] Data were analyzed offline using Matlab (R2016a; MathWorks). The spectral power was calculated in 0.5-Hz bins (fast Fourier transform with Hamming window) with artifact-free 4-hour EEG signals from each animal. […]
EEG and EMG from the frontal and parietal cortex and from the nuchal muscular complex were simultaneously recorded.
Surface electroencephalography (EEG) and electromyography (EMG) from the frontal and parietal cortex and from the nuchal muscular complex were simultaneously recorded.

N[C@@]1(C(=O)O)COC2C(C(=O)O)C21 (stereo in doubt) [LY379268, (1R,4R,5S,6R)-4-Amino-2-oxabicyclo[3.1.0] hexane-4,6-dicarboxylic acid]
length of NREM sleep bout: increased non-REM sleep bout length; also recorded: increased the length of NREM sleep bout

— US20220313650A1, “METHODS FOR TREATING NEURODEVELOPMENTAL DISORDERS” (The Broad Institute, Inc., priority 2019, published 2022)
